# Measurements published in US20230071637A1, “ORAL SUSPENSION WITH ANTIULCEROUS AND CHEMOPROTECTIVE EFFECT ON COLON CANCER AND PREPARATION METHOD THEREOF” (CENTRO NACIONAL DE INVESTIGACIONES CIENTIFICAS, priority 2020, published 2023).
# Marks after values point to notes of the source that are not given here.
# Legend:
# [1] = tested on: gastric ulcer induced by pylorus ligation; assay: Gastric ulcer induced by pylorus ligation in rats; type: in vivo, Sprague-Dawley rats
# Text: The composition obtained in example 2 (FAMC) was subjected to a preclinical test with animals, in which its antiulcer effect was compared with the antiulcer effects of the registered fatty alcohol tablet (RAT), and suspensions of Fatty Alcohols (FA) and microcrystalline cellulose (MC), the latter two prepared with doses of FA and MC equal to the doses of both substances in the FAMC suspension. The experimental model used in this test was that of the induction of gastric ulcers in rats by ligation of the pylorus, which is an acid-dependent model, unlike the model presented in the previous example. […] After completing the quarantine, the animals were randomly distributed into 11 experimental groups (10 rats/group): a negative control that only received the vehicle and 10 groups in which the ulcer was induced by ligation of the pylorus, among these a positive control not treated with any antiulcer agent, 8 groups treated with the substances to be evaluated and a group treated with Omeprazole as a reference substance, as shown in Table 3. The suspensions were administered as they are, while a suspension with 1% acacia gum was prepared to administer the tablet. The use of a negative control group (not subjected to pylorus ligation), as well as that of a positive control (subjected to damage and without treatment with any substance) made it possible to verify the functioning of the model and compare the anti-ulcer efficacy of the substances evaluated. All treatments were administered orally, as a single dose, by intragastric intubation. The selected doses are within the range of effective doses verified in previous preliminary experiences and the dose of omeprazole (20 mg/kg) has also been effective in this model. To induce gastric ulcer, the animals were fasted for 24 hours prior to the experiment, with free access to water. One hour after the administration of single doses of the vehicle, and the different treatments, the animals were anesthetized by intraperitoneal injection with sodium thiopental (35 mg/kg), a 2 cm-long incision was made in the anterior third of the line abdominal media, locating the stomach and ligating the pyloric sphincter with silk suture number 2 and the abdominal wall was sutured with silk thread. One hour later, the rats were sacrificed in a halothane atmosphere, the stomachs were removed and the gastric juice collected in test tubes. The latter was centrifuged at 3000 rpm, the supernatant separated and quantified in ml.
# [2] = tested on: ethanol-induced gastric ulcer; assay: Ethanol-induced gastric ulcer in rats; type: in vivo, Sprague-Dawley rats; settings: 20 mg/kg oral single dose
# Text: The composition obtained in example 2 (FAMC) was subjected to a preclinical test with animals, in which its antiulcer effect was compared with the antiulcer effects of the registered fatty alcohol tablet (RAT), and suspensions of Fatty Alcohols (FA) and microcrystalline cellulose (MC), the latter two prepared with doses of FA and MC equal to the doses of both substances in the FAMC suspension. The experimental model used in this trial was the induction of gastric ulcers in rats by ethanol. […] After completing the quarantine, the animals were randomly distributed into 11 experimental groups (10 rats/group): a negative control that only received the vehicle and 10 groups in which the ulcer was induced with 60% ethanol, among these a control positive not treated with any antiulcer agent, 8 groups treated with the substances to be evaluated and a group treated with Omeprazole as a reference substance, as shown in Table 2. […] The use of a negative control group (not subjected to damage with ethanol), as well as a positive control group (subjected to damage and without treatment with any substance) made it possible to verify the functioning of the model and compare the anti-ulcer efficacy of the substances evaluated. […]
structure (smiles),measurement,setting,value
"COc1ccc2[nH]c([S+]([O-])Cc3ncc(C)c(OC)c3C)nc2c1 (stereo not drawn) [OMP, Omeprazole]",Ulcer Index,"[1]; 20 mg/kg oral single dose, 1 h before pylorus ligation, mean ± SEM","3,9 ± 0,5 *** mm^2"
same,Gastric juice volume,"[1]; 20 mg/kg oral single dose, supernatant of gastric juice 1 h after ligation, mean ± SEM","3,4 ± 0,4 ml"
same,I (%) inhibition of ulcer index,"[1]; 20 mg/kg oral single dose, vs positive control","83,2%"
same,volume of gastric juice (effect in words),"[1]; pylorus ligation, doses tested, vs positive control",reduced
same,Ulcer Index,"[2]; 1 h before 60% ethanol, mean ± SEM",35.97 ± 14.48*** mm^2
same,I (%) inhibition of ulcer index,[2]; vs positive control,78.8%
